Laboratory results: US20240174596A1 (Northwestern University, priority 2021, published 2024)
Structures can show the parent of a compound that is named as a salt.

Columns and labels:
hOAT [1] = molecular target: T1, hOAT (Homo sapiens, UniProt P04181); assay: Time-dependent dialysis of inhibited hOAT; assay type: biochemical; conditions: up to 48 h against buffer with excessive PLP and α-KG
T1 construct: made in house; host or cells: E. coli BL21(DE3)
T1 sequence (P04181 26-439): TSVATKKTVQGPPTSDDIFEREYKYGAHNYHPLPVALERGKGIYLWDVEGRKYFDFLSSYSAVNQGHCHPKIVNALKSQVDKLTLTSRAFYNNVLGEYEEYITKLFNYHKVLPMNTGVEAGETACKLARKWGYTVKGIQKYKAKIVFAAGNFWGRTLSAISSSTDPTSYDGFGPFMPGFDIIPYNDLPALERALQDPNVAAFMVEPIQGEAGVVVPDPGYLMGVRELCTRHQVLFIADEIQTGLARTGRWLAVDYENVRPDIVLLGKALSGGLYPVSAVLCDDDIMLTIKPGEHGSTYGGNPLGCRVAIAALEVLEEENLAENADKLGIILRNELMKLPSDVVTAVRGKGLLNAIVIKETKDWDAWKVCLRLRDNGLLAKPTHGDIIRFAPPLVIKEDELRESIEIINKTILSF
Description: Plausible Inactivation Mechanisms of SS-1-148 with hOAT. The irreversibility of the inhibition of hOAT by SS-1-148 was evaluated by a time-dependent dialysis experiment up to 48 h against a buffer consisting of excessive PLP and α-KG (FIG. 10). […] To reveal the structure of the final product in the inactivation reaction, we co-crystallized hOAT with an excessive amount of SS-1-148. […] It also contains three copies of the protein monomer in one asymmetric unit. Similar to the soaking crystal structure shown in FIG. 4A, PLP is covalently linked to SS-1-148 moiety in the cocrystal structure. However, no covalent bond is noticed between Lys292 and the final product. Moreover, in the published crystal structure of the native enzyme (holo-hOAT), Arg413 typically forms a salt bridge with Glu235, which is found intact for several cocrystals of hOAT with different inactivators.^14, 23, 26 In the hOAT/SS-1-148 soaking result (FIG. 4A), the salt bridge of Arg413-Glu235 is broken due to the existence of an alternative salt bridge between the carboxylate of one intermediate and Arg413. […] Instead, Arg413, Gln266, and the final product are hydrogen-bonded to the same water molecule.
The dialysis experiment was conducted using previous protocols.^8-10

[2] = Liver microsomal stability, mouse; assay type: in vitro ADME
CYP 2C9 = CYP 2C9 (Homo sapiens, UniProt P11712); assay: CYP inhibition 2C9; assay type: in vitro ADME
CYP 2C9, sequence (P11712 whole entry): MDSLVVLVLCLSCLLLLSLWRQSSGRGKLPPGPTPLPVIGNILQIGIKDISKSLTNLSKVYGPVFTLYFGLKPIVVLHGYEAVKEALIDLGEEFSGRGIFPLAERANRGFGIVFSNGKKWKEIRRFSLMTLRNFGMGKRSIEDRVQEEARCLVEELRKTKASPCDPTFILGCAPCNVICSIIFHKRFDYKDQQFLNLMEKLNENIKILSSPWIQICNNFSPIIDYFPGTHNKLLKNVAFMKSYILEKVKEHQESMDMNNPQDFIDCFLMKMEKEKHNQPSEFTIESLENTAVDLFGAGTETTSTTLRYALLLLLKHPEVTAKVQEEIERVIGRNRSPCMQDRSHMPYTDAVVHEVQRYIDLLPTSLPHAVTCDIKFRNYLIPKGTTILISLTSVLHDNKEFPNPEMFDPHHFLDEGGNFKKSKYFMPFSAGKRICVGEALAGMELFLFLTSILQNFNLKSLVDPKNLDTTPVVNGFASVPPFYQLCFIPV

[3] = Plasma protein binding, mouse; assay type: in vitro ADME
hOAT [4] = molecular target: T1, hOAT; assay: Partition ratio experiment (titration of hOAT); assay type: biochemical
Description: FIG. 9. Titration of hOAT with SS-1-148. The loss of enzyme activity was measured as a function of the ratio of […] to enzyme concentration. Linear regression was used on the linear portion of the curves to obtain the X-intercept, which was the turnover number (partition ratio=turnover number−1).
The partition ratio was calculated using previous protocols.^8-10

hOAT [5] = molecular target: T1, hOAT; assay: Time-dependent inactivation of hOAT; assay type: biochemical
Description: All reagents for enzyme purification and assays were purchased from Sigma-Aldrich (St. Louis, MO, USA). Human OAT (0.672 mg/mL) was purified from E. coli BL21 (DE3) cells following the procedure described above, and coenzyme human recombinant pyrroline 5-carboxylate reductase (PYCRI) were expressed, grown, and purified according to a literature procedure.^4 γ-Aminobutyric acid aminotransferase (GABA-AT, 0.4 mg/mL) was purified from pig brain following a procedure described previously^5, and coenzyme succinic semialdehyde dehydrogenase (SSDH) was purified from GABase (catalog No. G7509-25UN, Sigma-Aldrich), a commercially available mixture of SSDH and GABA-AT, using a known procedure.^6 Commercially available L-aspartate aminotransferase (Asp-AT) from the porcine heart (catalog No. G2751-2KU, Sigma-Aldrich) and the desired assay coenzyme malic dehydrogenase from porcine (catalog No. M2634-5KU, Sigma-Aldrich), and L-alanine aminotransferase (Ala-AT) from the porcine heart (catalog No. G8255-200UN, Sigma-Aldrich) and the desired assay coenzyme lactate dehydrogenase from porcine (catalog No. 427211-50KU, Sigma-Aldrich) were used directly without further purification. All the enzyme assays for the inactivation, partition ratio, and dialysis experiment were recorded on a Synergy H1 hybrid multimode microplate reader (Biotek, USA) with transparent 96-well plates.
Time-dependent inactivation against hOAT was performed using an optimized procedure published previously.^7 10 μL of hOAT (0.025 mg/mL) was preincubated with 10 μL of various concentrations of tested compounds in 100 mM potassium pyrophosphate buffer (pH 8.0, 5 mM α-ketoglutarate, and 5 mM β-mercaptoethanol) at 25° C. in a 96-well plate. At time intervals, 80 μL of assay solution containing PYCR^1 (0.5 μg), 1 mM NADH, and 25 mM L-ornithine in the abovementioned potassium pyrophosphate buffer were added to the incubation mixture and assayed for OAT activity at 37° C. for 30 min. The change in UV absorbance at 340 nm at 37° C. based on the conversion of NADH to NAD was monitored by a microplate reader. All assays were performed in duplicate, and the remaining OAT activity at each preincubation time at each inhibitor concentration was averaged. The natural logarithm of the percentage of the remaining OAT activity was plotted against the preincubation time at each inhibitor concentration to obtain the kobs (slope) value for each concentration. The kobs value is the rate constant describing the inactivation at each inhibitor concentration. kobs is replotted against the inhibitor concentration using nonlinear regression analysis using GraphPad Prism 8.0. K1 and kinact values were estimated from equation (1)
where kinact is the maximal rate of inactivation, K1 is the inhibitor concentration required for half-maximal inactivation, and [I] is the preincubation concentration of the tested compound.

N[C@H]1C=C(C(=O)O)CC1(F)F [SS-1-148, (S)-3-Amino-4,4-difluorocyclopent-1-enecarboxylic acid hydrochloric acid salt]
remaining activity of hOAT after dialysis (hOAT [1]): unchanged
Liver microsomal stability (t1/2) Mouse [2]: N/C
IC50 (CYP 2C9): > 100 µM
fraction unbound [3]: 1
equivalents turned over per active site for each equivalent leading to inactivation (hOAT [4]): 34.9 equivalents
improvement of inactivation efficiency (kinact/K1) relative to parent compound 4 (hOAT [5]): 444 fold
type of inhibition on hOAT (hOAT [5]): irreversible inhibitor
kinact/KI (hOAT [5]; inactivation efficiency): 22.2 M⁻¹ s⁻¹
kinact (hOAT [5]; mean and standard error): 0.00133 s⁻¹
